Source: patent US20230111310A1, “CARBOXYLIC ACID DERIVATIVE-SUBSTITUTED IMINO ARYL COMPOUND, PREPARATION METHOD THEREFOR, HERBICIDAL COMPOSITION AND USE THEREOF” (Qingdao Kingagroot Chemical Compound Co., Ltd., priority 2020, published 2023)

Tested on: Digitaria sanguinalis
Experiment: Weeding effect in post-emergence stage
Assay type: in vivo
Conditions: Dose 15 g/ha; level of fresh weight growth control rate
Summary of the method: (§1)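 Compound, dissolved in acetone and diluted in water with Tween 80 plus methyl oleate EC (1.5 liter/ha), is sprayed onto 2-3 leaf potted plants. Rates span 7.5–500 g/ha. After 3 weeks of greenhouse culture, weeding effect is counted as the mean of triplicates.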

Row | Structure (SMILES) | Weeding effect in post-emergence stage, Digitaria sanguinalis
1 | CCOC(=O)C(F)O/N=C/c1cc(-n2c(=O)cc(C(F)(F)F)n(C)c2=O)c(F)cc1Cl (stereo not drawn) [Compound 313] | 5 (Level 5: growth control rate is above 85%)
2 | CCC(O/N=C/c1cc(-n2c(=O)cc(C(F)(F)F)n(C)c2=O)c(F)cc1Cl)C(=O)OC (stereo not drawn) [Compound 315] | 5 (Level 5: growth control rate is above 85%)
3 | CCCC(O/N=C/c1cc(-n2c(=O)cc(C(F)(F)F)n(C)c2=O)c(F)cc1Cl)C(=O)OC (stereo not drawn) [Compound 316] | 5 (Level 5: growth control rate is above 85%)

Same assay, conditions: Dose 30 g/ha; level of fresh weight growth control rate

Row | Structure (SMILES) | Weeding effect in post-emergence stage, Digitaria sanguinalis
4 | CC(O/N=C/c1cc(-n2c(=O)cc(C(F)(F)F)n(C)c2=O)c(F)cc1Cl)C(=O)OCC1OCCO1 (stereo not drawn) [Compound 266] | 5 (Level 5: growth control rate is above 85%)
5 | CC(O/N=C/c1cc(-n2c(=O)cc(C(F)(F)F)n(C)c2=O)c(F)cc1Cl)C(=O)OCc1cccs1 (stereo not drawn) [Compound 268] | 5 (Level 5: growth control rate is above 85%)
6 | CC(O/N=C/c1cc(-n2c(=O)cc(C(F)(F)F)n(C)c2=O)c(F)cc1Cl)C(=O)OCc1cccc(F)c1 (stereo not drawn) [Compound 285] | 5 (Level 5: growth control rate is above 85%)
7 | CC(O/N=C/c1cc(-n2c(=O)cc(C(F)(F)F)n(C)c2=O)c(F)cc1Cl)C(=O)OCc1ccc(F)cc1 (stereo not drawn) [Compound 286] | 5 (Level 5: growth control rate is above 85%)

Same assay, conditions: Dose 60 g/ha; level of fresh weight growth control rate

Row | Structure (SMILES) | Weeding effect in post-emergence stage, Digitaria sanguinalis
8 | CC(O/N=C/c1cc(-n2c(=O)cc(C(F)(F)F)n(C)c2=O)c(F)cc1Cl)C(=O)ON1C(=O)CCC1=O (stereo not drawn) [Compound 263] | 5 (Level 5: growth control rate is above 85%)

Tested on: Setaria viridis
Experiment: Weeding effect in post-emergence stage
Assay type: in vivo
Conditions: Dose 15 g/ha; level of fresh weight growth control rate
Summary of the method: as §1

Row | Structure (SMILES) | Weeding effect in post-emergence stage, Setaria viridis
9 | CCOC(=O)C(F)O/N=C/c1cc(-n2c(=O)cc(C(F)(F)F)n(C)c2=O)c(F)cc1Cl (stereo not drawn) [Compound 313] | 5 (Level 5: growth control rate is above 85%)
10 | CCC(O/N=C/c1cc(-n2c(=O)cc(C(F)(F)F)n(C)c2=O)c(F)cc1Cl)C(=O)OC (stereo not drawn) [Compound 315] | 5 (Level 5: growth control rate is above 85%)
11 | CCCC(O/N=C/c1cc(-n2c(=O)cc(C(F)(F)F)n(C)c2=O)c(F)cc1Cl)C(=O)OC (stereo not drawn) [Compound 316] | 5 (Level 5: growth control rate is above 85%)

Same assay, conditions: Dose 30 g/ha; level of fresh weight growth control rate

Row | Structure (SMILES) | Weeding effect in post-emergence stage, Setaria viridis
12 | CC(O/N=C/c1cc(-n2c(=O)cc(C(F)(F)F)n(C)c2=O)c(F)cc1Cl)C(=O)OCC1OCCO1 (stereo not drawn) [Compound 266] | 5 (Level 5: growth control rate is above 85%)
13 | CC(O/N=C/c1cc(-n2c(=O)cc(C(F)(F)F)n(C)c2=O)c(F)cc1Cl)C(=O)OCc1cccs1 (stereo not drawn) [Compound 268] | 5 (Level 5: growth control rate is above 85%)
14 | CC(O/N=C/c1cc(-n2c(=O)cc(C(F)(F)F)n(C)c2=O)c(F)cc1Cl)C(=O)OCc1cccc(F)c1 (stereo not drawn) [Compound 285] | 5 (Level 5: growth control rate is above 85%)
15 | CC(O/N=C/c1cc(-n2c(=O)cc(C(F)(F)F)n(C)c2=O)c(F)cc1Cl)C(=O)OCc1ccc(F)cc1 (stereo not drawn) [Compound 286] | 5 (Level 5: growth control rate is above 85%)

Same assay, conditions: Dose 60 g/ha; level of fresh weight growth control rate

Row | Structure (SMILES) | Weeding effect in post-emergence stage, Setaria viridis
16 | CC(O/N=C/c1cc(-n2c(=O)cc(C(F)(F)F)n(C)c2=O)c(F)cc1Cl)C(=O)ON1C(=O)CCC1=O (stereo not drawn) [Compound 263] | 5 (Level 5: growth control rate is above 85%)

Tested on: Abutilon theophrasti
Experiment: Weeding effect in post-emergence stage
Assay type: in vivo
Conditions: Dose 15 g/ha; level of fresh weight growth control rate
Summary of the method: as §1

Row | Structure (SMILES) | Weeding effect in post-emergence stage, Abutilon theophrasti
17 | CCOC(=O)C(F)O/N=C/c1cc(-n2c(=O)cc(C(F)(F)F)n(C)c2=O)c(F)cc1Cl (stereo not drawn) [Compound 313] | 5 (Level 5: growth control rate is above 85%)
18 | CCC(O/N=C/c1cc(-n2c(=O)cc(C(F)(F)F)n(C)c2=O)c(F)cc1Cl)C(=O)OC (stereo not drawn) [Compound 315] | 5 (Level 5: growth control rate is above 85%)
19 | CCCC(O/N=C/c1cc(-n2c(=O)cc(C(F)(F)F)n(C)c2=O)c(F)cc1Cl)C(=O)OC (stereo not drawn) [Compound 316] | 5 (Level 5: growth control rate is above 85%)

Same assay, conditions: Dose 30 g/ha; level of fresh weight growth control rate

Row | Structure (SMILES) | Weeding effect in post-emergence stage, Abutilon theophrasti
20 | CC(O/N=C/c1cc(-n2c(=O)cc(C(F)(F)F)n(C)c2=O)c(F)cc1Cl)C(=O)OCC1OCCO1 (stereo not drawn) [Compound 266] | 5 (Level 5: growth control rate is above 85%)
21 | CC(O/N=C/c1cc(-n2c(=O)cc(C(F)(F)F)n(C)c2=O)c(F)cc1Cl)C(=O)OCc1cccs1 (stereo not drawn) [Compound 268] | 5 (Level 5: growth control rate is above 85%)
22 | CC(O/N=C/c1cc(-n2c(=O)cc(C(F)(F)F)n(C)c2=O)c(F)cc1Cl)C(=O)OCc1cccc(F)c1 (stereo not drawn) [Compound 285] | 5 (Level 5: growth control rate is above 85%)
23 | CC(O/N=C/c1cc(-n2c(=O)cc(C(F)(F)F)n(C)c2=O)c(F)cc1Cl)C(=O)OCc1ccc(F)cc1 (stereo not drawn) [Compound 286] | 5 (Level 5: growth control rate is above 85%)

Same assay, conditions: Dose 60 g/ha; level of fresh weight growth control rate

Row | Structure (SMILES) | Weeding effect in post-emergence stage, Abutilon theophrasti
24 | CC(O/N=C/c1cc(-n2c(=O)cc(C(F)(F)F)n(C)c2=O)c(F)cc1Cl)C(=O)ON1C(=O)CCC1=O (stereo not drawn) [Compound 263] | 5 (Level 5: growth control rate is above 85%)

Tested on: Alopecurus japonicus
Experiment: Weeding effect in post-emergence stage
Assay type: in vivo
Conditions: Dose 15 g/ha; level of fresh weight growth control rate
Summary of the method: as §1

Row | Structure (SMILES) | Weeding effect in post-emergence stage, Alopecurus japonicus
25 | CCOC(=O)C(F)O/N=C/c1cc(-n2c(=O)cc(C(F)(F)F)n(C)c2=O)c(F)cc1Cl (stereo not drawn) [Compound 313] | 5 (Level 5: growth control rate is above 85%)
26 | CCC(O/N=C/c1cc(-n2c(=O)cc(C(F)(F)F)n(C)c2=O)c(F)cc1Cl)C(=O)OC (stereo not drawn) [Compound 315] | 5 (Level 5: growth control rate is above 85%)
27 | CCCC(O/N=C/c1cc(-n2c(=O)cc(C(F)(F)F)n(C)c2=O)c(F)cc1Cl)C(=O)OC (stereo not drawn) [Compound 316] | 5 (Level 5: growth control rate is above 85%)

Same assay, conditions: Dose 30 g/ha; level of fresh weight growth control rate

Row | Structure (SMILES) | Weeding effect in post-emergence stage, Alopecurus japonicus
28 | CC(O/N=C/c1cc(-n2c(=O)cc(C(F)(F)F)n(C)c2=O)c(F)cc1Cl)C(=O)OCC1OCCO1 (stereo not drawn) [Compound 266] | 5 (Level 5: growth control rate is above 85%)
29 | CC(O/N=C/c1cc(-n2c(=O)cc(C(F)(F)F)n(C)c2=O)c(F)cc1Cl)C(=O)OCc1cccs1 (stereo not drawn) [Compound 268] | 5 (Level 5: growth control rate is above 85%)
30 | CC(O/N=C/c1cc(-n2c(=O)cc(C(F)(F)F)n(C)c2=O)c(F)cc1Cl)C(=O)OCc1cccc(F)c1 (stereo not drawn) [Compound 285] | 5 (Level 5: growth control rate is above 85%)
31 | CC(O/N=C/c1cc(-n2c(=O)cc(C(F)(F)F)n(C)c2=O)c(F)cc1Cl)C(=O)OCc1ccc(F)cc1 (stereo not drawn) [Compound 286] | 5 (Level 5: growth control rate is above 85%)

Same assay, conditions: Dose 60 g/ha; level of fresh weight growth control rate

Row | Structure (SMILES) | Weeding effect in post-emergence stage, Alopecurus japonicus
32 | CC(O/N=C/c1cc(-n2c(=O)cc(C(F)(F)F)n(C)c2=O)c(F)cc1Cl)C(=O)ON1C(=O)CCC1=O (stereo not drawn) [Compound 263] | 5 (Level 5: growth control rate is above 85%)

Tested on: Eleusine indica
Experiment: Weeding effect in post-emergence stage
Assay type: in vivo
Conditions: Dose 15 g/ha; level of fresh weight growth control rate
Summary of the method: as §1

Row | Structure (SMILES) | Weeding effect in post-emergence stage, Eleusine indica
33 | CCOC(=O)C(F)O/N=C/c1cc(-n2c(=O)cc(C(F)(F)F)n(C)c2=O)c(F)cc1Cl (stereo not drawn) [Compound 313] | 5 (Level 5: growth control rate is above 85%)
34 | CCC(O/N=C/c1cc(-n2c(=O)cc(C(F)(F)F)n(C)c2=O)c(F)cc1Cl)C(=O)OC (stereo not drawn) [Compound 315] | 5 (Level 5: growth control rate is above 85%)
35 | CCCC(O/N=C/c1cc(-n2c(=O)cc(C(F)(F)F)n(C)c2=O)c(F)cc1Cl)C(=O)OC (stereo not drawn) [Compound 316] | 5 (Level 5: growth control rate is above 85%)

Same assay, conditions: Dose 30 g/ha; level of fresh weight growth control rate

Row | Structure (SMILES) | Weeding effect in post-emergence stage, Eleusine indica
36 | CC(O/N=C/c1cc(-n2c(=O)cc(C(F)(F)F)n(C)c2=O)c(F)cc1Cl)C(=O)OCC1OCCO1 (stereo not drawn) [Compound 266] | 5 (Level 5: growth control rate is above 85%)
37 | CC(O/N=C/c1cc(-n2c(=O)cc(C(F)(F)F)n(C)c2=O)c(F)cc1Cl)C(=O)OCc1cccs1 (stereo not drawn) [Compound 268] | 5 (Level 5: growth control rate is above 85%)
38 | CC(O/N=C/c1cc(-n2c(=O)cc(C(F)(F)F)n(C)c2=O)c(F)cc1Cl)C(=O)OCc1cccc(F)c1 (stereo not drawn) [Compound 285] | 5 (Level 5: growth control rate is above 85%)
39 | CC(O/N=C/c1cc(-n2c(=O)cc(C(F)(F)F)n(C)c2=O)c(F)cc1Cl)C(=O)OCc1ccc(F)cc1 (stereo not drawn) [Compound 286] | 5 (Level 5: growth control rate is above 85%)

Same assay, conditions: Dose 60 g/ha; level of fresh weight growth control rate

Row | Structure (SMILES) | Weeding effect in post-emergence stage, Eleusine indica
40 | CC(O/N=C/c1cc(-n2c(=O)cc(C(F)(F)F)n(C)c2=O)c(F)cc1Cl)C(=O)ON1C(=O)CCC1=O (stereo not drawn) [Compound 263] | 5 (Level 5: growth control rate is above 85%)

Tested on: Echinochloa crusgalli
Experiment: Weeding effect in post-emergence stage
Assay type: in vivo
Conditions: Dose 15 g/ha; level of fresh weight growth control rate
Summary of the method: as §1

Row | Structure (SMILES) | Weeding effect in post-emergence stage, Echinochloa crusgalli
41 | CCOC(=O)C(F)O/N=C/c1cc(-n2c(=O)cc(C(F)(F)F)n(C)c2=O)c(F)cc1Cl (stereo not drawn) [Compound 313] | 5 (Level 5: growth control rate is above 85%)
42 | CCC(O/N=C/c1cc(-n2c(=O)cc(C(F)(F)F)n(C)c2=O)c(F)cc1Cl)C(=O)OC (stereo not drawn) [Compound 315] | 5 (Level 5: growth control rate is above 85%)
43 | CCCC(O/N=C/c1cc(-n2c(=O)cc(C(F)(F)F)n(C)c2=O)c(F)cc1Cl)C(=O)OC (stereo not drawn) [Compound 316] | 5 (Level 5: growth control rate is above 85%)

Same assay, conditions: Dose 30 g/ha; level of fresh weight growth control rate

Row | Structure (SMILES) | Weeding effect in post-emergence stage, Echinochloa crusgalli
44 | CC(O/N=C/c1cc(-n2c(=O)cc(C(F)(F)F)n(C)c2=O)c(F)cc1Cl)C(=O)OCC1OCCO1 (stereo not drawn) [Compound 266] | 5 (Level 5: growth control rate is above 85%)
45 | CC(O/N=C/c1cc(-n2c(=O)cc(C(F)(F)F)n(C)c2=O)c(F)cc1Cl)C(=O)OCc1cccs1 (stereo not drawn) [Compound 268] | 5 (Level 5: growth control rate is above 85%)
46 | CC(O/N=C/c1cc(-n2c(=O)cc(C(F)(F)F)n(C)c2=O)c(F)cc1Cl)C(=O)OCc1cccc(F)c1 (stereo not drawn) [Compound 285] | 5 (Level 5: growth control rate is above 85%)
47 | CC(O/N=C/c1cc(-n2c(=O)cc(C(F)(F)F)n(C)c2=O)c(F)cc1Cl)C(=O)OCc1ccc(F)cc1 (stereo not drawn) [Compound 286] | 5 (Level 5: growth control rate is above 85%)

Same assay, conditions: Dose 60 g/ha; level of fresh weight growth control rate

Row | Structure (SMILES) | Weeding effect in post-emergence stage, Echinochloa crusgalli
48 | CC(O/N=C/c1cc(-n2c(=O)cc(C(F)(F)F)n(C)c2=O)c(F)cc1Cl)C(=O)ON1C(=O)CCC1=O (stereo not drawn) [Compound 263] | 5 (Level 5: growth control rate is above 85%)
